In ChEMBL document CHEMBL3727368, “Thienopyrimidine inhibitors of atypical protein kinase C” (2013):

Assays:
[1] = target: T1, Protein kinase C iota type (Homo sapiens, UniProt P41743); assay: Inhibition of recombinant full-length human PKC-iota expressed in Sf21 cells using FAM-PKCs pseudopeptide derived peptide substrate and 150 uM ATP by fluorescence polarization based IMAP assay
T1 sequence (P41743 whole entry): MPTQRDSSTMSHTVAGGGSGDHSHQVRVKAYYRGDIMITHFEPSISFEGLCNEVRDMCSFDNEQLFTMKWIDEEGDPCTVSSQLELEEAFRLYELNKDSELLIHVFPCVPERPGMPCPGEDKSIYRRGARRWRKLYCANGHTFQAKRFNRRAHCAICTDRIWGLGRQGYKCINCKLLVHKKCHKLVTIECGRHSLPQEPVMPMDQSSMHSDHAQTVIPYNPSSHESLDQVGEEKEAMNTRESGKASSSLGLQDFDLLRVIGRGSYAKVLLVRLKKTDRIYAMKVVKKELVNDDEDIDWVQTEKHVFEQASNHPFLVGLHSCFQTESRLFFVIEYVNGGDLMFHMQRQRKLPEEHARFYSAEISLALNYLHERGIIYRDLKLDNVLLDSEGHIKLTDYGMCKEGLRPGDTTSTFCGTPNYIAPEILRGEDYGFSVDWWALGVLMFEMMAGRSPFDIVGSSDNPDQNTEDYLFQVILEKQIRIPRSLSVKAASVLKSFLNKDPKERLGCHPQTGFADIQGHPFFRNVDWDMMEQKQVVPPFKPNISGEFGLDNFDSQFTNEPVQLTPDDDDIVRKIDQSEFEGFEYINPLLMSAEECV

[2] = target: T1, Protein kinase C iota type; assay: Inhibition of recombinant human PKC-iota kinase domain expressed in Sf21 cells using FAM-PKCs pseudopeptide derived peptide substrate and 25 uM ATP by fluorescence polarization based IMAP assay

IC50 [1] | IC50 [2] | Compound
≤ 1000 nM |  | N[C@H](CNc1nc(-c2ccncc2)nc2c(/C=C/C(=O)O)csc12)Cc1ccccc1
< 100 nM |  | N[C@H](CNc1nc(-c2ccncc2)nc2c(Br)csc12)Cc1ccccc1
< 100 nM |  | N[C@H](CNc1nc(-c2ccncc2)nc2c(Cl)csc12)Cc1ccccc1
< 100 nM |  | N[C@H](CNc1nc(-c2ccncc2)nc2c(C3CC3)csc12)Cc1ccccc1
< 100 nM |  | C#Cc1csc2c(NC[C@@H](N)Cc3ccccc3)nc(-c3ccncc3)nc12
 | < 100 nM | Cc1csc2c(NC[C@@H](N)Cc3ccccc3)nc(-c3ccncc3)nc12
< 100 nM |  | C/C=C\c1csc2c(NC[C@@H](N)Cc3ccccc3)nc(-c3ccncc3)nc12
< 100 nM |  | N[C@H](CNc1nc(-c2ccncc2)nc2c(C#CC3(O)CC3)csc12)Cc1ccccc1
< 100 nM |  | N[C@H](CNc1nc(-c2ccncc2)nc2c(/C=C/C3CC3)csc12)Cc1ccccc1
< 100 nM |  | CC#Cc1csc2c(NC[C@@H](N)Cc3ccccc3)nc(-c3ccncc3)nc12
< 100 nM |  | CNC(=O)c1csc2c(NC[C@@H](N)Cc3ccccc3)nc(-c3ccncc3)nc12
< 100 nM |  | N[C@H](CNc1nc(-c2ccncc2)nc2c(C#CC3CC3)csc12)Cc1ccccc1
< 100 nM |  | CC(O)C#Cc1csc2c(NC[C@@H](N)Cc3ccccc3)nc(-c3ccncc3)nc12 (stereo partly drawn)
< 100 nM |  | N#Cc1csc2c(NC[C@@H](N)Cc3ccccc3)nc(-c3ccncc3)nc12
< 100 nM |  | C=Cc1csc2c(NC[C@@H](N)Cc3ccccc3)nc(-c3ccncc3)nc12
< 100 nM |  | C[C@H](O)C#Cc1csc2c(NC[C@@H](N)Cc3ccccc3)nc(-c3ccncc3)nc12
≥ 10000 nM |  | N[C@H](CNc1nc(-c2ccncc2)nc2c(NC(=O)C3CCCC3)csc12)Cc1ccccc1
< 100 nM |  | N[C@H](CNc1nc(-c2ccncc2)nc2c(C#CCO)csc12)Cc1ccccc1
< 100 nM |  | N[C@H](CNc1nc(-c2ccncc2)nc2c(C#CCF)csc12)Cc1ccccc1

Further lines, the molecule ahead of its results:

Compound | IC50 [1] | IC50 [2]
CCC[C@@H](O)[C@H](O)C#Cc1csc2c(NC[C@@H](N)Cc3ccccc3)nc(-c3ccncc3)nc12 | ≥ 1000 nM | 
CCc1cc(-c2csc3c(NC[C@@H](N)Cc4ccccc4)nc(-c4ccncc4)nc23)[nH]n1 | < 100 nM | 
N[C@H](CNc1nc(-c2ccncc2)nc2c(C#Cc3cc[nH]n3)csc12)Cc1ccccc1 | < 100 nM | 
N[C@H](CNc1nc(-c2ccncc2)nc2c(-c3ccccc3Cl)c(C(F)(F)F)sc12)Cc1ccccc1 | ≥ 10000 nM | 
Cc1csc2nc(-c3ccncc3)nc(N3CCNCC3)c12 |  | < 100 nM
Cc1ccc(CN2CCN(c3nc(-c4ccncc4)nc4sc5c(c34)CCCC5)CC2)cc1 |  | ≥ 10000 nM
N[C@H](CNc1nc(-c2ccncc2)nc2c(Nc3ccon3)csc12)Cc1ccccc1 | < 100 nM | 
N[C@H](CNc1nc(-c2ccncc2)nc2c(C#CC3(O)CCCC3)csc12)Cc1ccccc1 | < 100 nM | 
CC(C)(O)C#Cc1csc2c(NC[C@@H](N)Cc3ccccc3)nc(-c3ccncc3)nc12 | < 100 nM | 
C[C@@H](F)C#Cc1csc2c(NC[C@@H](N)Cc3ccccc3)nc(-c3ccncc3)nc12 | < 100 nM | 
N[C@H](CNc1nc(-c2ccncc2)nc2c(-c3cn[nH]n3)csc12)Cc1ccccc1 | < 100 nM | 
N[C@H](CNc1nc(-c2ccncc2F)nc2c(C#CCO)csc12)Cc1ccccc1 | < 100 nM | 
Cc1sc2c(NC[C@@H](N)Cc3ccccc3)nc(-c3ccncc3)nc2c1C#CC(C)(C)O | < 100 nM | 
C[C@@H](O)C#Cc1csc2c(NC[C@@H](N)Cc3ccccc3)nc(-c3ccncc3)nc12 | < 100 nM | 
Brc1csc2c(N[C@@H]3CCNC3)nc(-c3ccncc3)nc12 | < 100 nM | 
CC[C@H](O)C#Cc1csc2c(NC[C@@H](N)Cc3ccccc3)nc(-c3ccncc3)nc12 | < 100 nM | 
N[C@H](CNc1nc(-c2ccncc2)nc2c(-c3ccn[nH]3)csc12)Cc1ccccc1 | < 100 nM | 

Compound | IC50 [1] | IC50 [2]
Cc1sc2c(NC[C@@H](N)Cc3ccccc3)nc(-c3ccncc3)nc2c1-c1ccn[nH]1 | < 100 nM | 
F[C@H]1NCC[C@H]1Nc1nc(-c2ccncc2)nc2ccsc12 | ≥ 10000 nM | 
N[C@H](CNc1nc(-c2ccncc2F)nc2c(-c3cc[nH]n3)csc12)Cc1ccccc1 | < 100 nM | 
C[C@H](N)CNc1nc(-c2ccncc2)nc2sc3c(c12)CCCC3 |  | < 100 nM
N[C@H](CNc1nc(-c2ccncc2)nc2sc3c(c12)CCCC3)Cc1ccccc1O | < 100 nM | 
N[C@H](CNc1nc(-c2ccncc2)nc2c(C#CCCO)csc12)Cc1ccccc1 | < 100 nM | 
CC(O)CC#Cc1csc2c(NC[C@@H](N)Cc3ccccc3)nc(-c3ccncc3)nc12 (stereo partly drawn) | < 100 nM | 
C[C@H](O)C#Cc1csc2c(N[C@@H]3CCNC3)nc(-c3ccncc3)nc12 | < 100 nM | 
COCC#Cc1csc2c(NC[C@@H](N)Cc3ccccc3)nc(-c3ccncc3)nc12 | < 100 nM | 
CC(C)S(=O)(=O)c1cccc(Nc2cc(-c3nc(N[C@@H]4CCNC4)c4sccc4n3)ccn2)c1 | ≥ 1000 nM | 
N[C@H](CNc1nc(-c2ccncc2F)nc2c(Br)csc12)Cc1ccccc1 | < 100 nM | 
Cc1sc2c(NC[C@@H](N)Cc3ccccc3)nc(-c3ccncc3)nc2c1Br | < 100 nM | 
CC(C)(C)OC(=O)N1CCc2c(sc3nc(-c4ccncc4)nc(NCCN)c23)C1 | ≥ 10000 nM | 
Cc1cc(-c2csc3c(NC[C@@H](N)Cc4ccccc4)nc(-c4ccncc4)nc23)n[nH]1 | < 100 nM | 
c1cc(-c2nc(N[C@@H]3CCNC3)c3scc(-c4ccn[nH]4)c3n2)ccn1 | < 100 nM | 
N[C@H](CNc1nc(-c2ccncc2)nc2c(C#CC3(O)CCC3)csc12)Cc1ccccc1 | < 100 nM | 
N[C@H](CNc1nc(-c2ccncc2)nc2c(Nc3ccccn3)csc12)Cc1ccccc1 | < 100 nM | 
